Data: US10975087B2, “Solid forms of tetrahydropyranyl amino-pyrrolopyrimidinone compounds” (ArQule, Inc., priority 2018, dated 2021)

Assays:
Type in all cases: physicochemical
[1] = Dynamic vapor sorption (DVS); settings: for Post-DVS XRPD analysis (form): after exposure to elevated humidity; for moisture uptake by DVS: at 90% RH
Protocol: Approximately 10-20 mg of sample was placed into a mesh vapor sorption balance pan and loaded into a DVS-1 dynamic vapor sorption balance by Surface Measurement Systems. […] After completion of the sorption cycle, the sample was dried using the same procedure to 0% RH and then a second sorption cycle back to 40% RH. Two cycles were performed. The weight change during the sorption/desorption cycles were plotted, allowing for the hygroscopic nature of the sample to be determined. XRPD analysis may be then carried out on any solid retained.

[2] = Gravimetric vapor sorption (GVS)
Protocol: Approximately 10-20 mg of sample was placed into a mesh vapor sorption balance pan and loaded into an IGASorp Moisture Sorption Analyzer balance by Hiden Analytical. The sample was subjected to a ramping profile from 40-90% relative humidity (RH) at 10% increments, maintaining the sample at each step until a stable weight had been achieved (98% step completion). After completion of the sorption cycle, the sample was dried using the same procedure to 0% RH, and finally taken back to the starting point of 40% RH. Two cycles were performed. The weight change during the sorption/desorption cycles were plotted, allowing for the hygroscopic nature of the sample to be determined.

[3] = Acetone solubility; settings: form of residual solid; amorphous input: Form 2 residual solid with additional peaks
Protocol: Aqueous and acetone solubility was carried out using 3-10 mg of material, depending on availability, and slurrying in 150-200 μL of acetone or 300 μL of deionized water. The samples were agitated at ambient temperature then filtered by centrifugation (0.22 μm nylon filter) after ca. 24 hours and the solids analyzed by XRPD as damp solids. The filtrates were analyzed by HPLC for concentration determination. The water solubility was too low for detection using the current analytical method.

[4] = Aqueous solubility; settings: water, thermodynamic from solid, solvent addition method
[5] = Acetone solubility; settings: organic solvent or mixture, thermodynamic from solid, partial dissolution, solvent addition method
[6] = Form conversion under ambient or vacuum drying conditions
[7] = 7 day stability testing, open vials at 40° C./75% RH, ambient and 80° C.; settings: 40° C./75% RH, 80° C., and ambient temperature, 1 week
[8] = Accelerated storage conditions (75% RH/40° C. for 72 hours), XRPD
[9] = Salt disproportionation studies (slurry in deionized water); settings: 48 hours
Protocol: Samples of salts described herein were prepared for disproportionation studies. Approximately 15 mg of the salt material was suspended in 4 mL of deionized water at ambient temperature (ca. 22° C.). The slurry of the salt was shaken at ambient temperature and analyzed after: 1 h, 24 h, and 48 h. Each sample was filtered using a centrifuge filter. The solid was analyzed by XRPD. pH measurements were performed for the solution (three pH measurements were carried out for each sample and the average pH was calculated).

[10] = Thermodynamic solubility pH measurements; settings: respective buffer, 25° C., 48 hours
Protocol: After 2 hours at 25° C., the pH of each slurry was measured and the pH was adjusted, where required. After 24 hours at 25° C., the pH of each slurry was measured and the pH was adjusted, where required. After 48 hours at 25° C., the slurries were separated by centrifugation. The solids were analyzed by XRPD, while the pH of the separated liquors were also measured.

[11] = Hydration studies in water/acetone mixtures; settings: for Hydration study result (solid by XRPD): 5 days
Protocol: Hydration experiments were performed at 25° C. and 50° C. in water/acetone mixtures with the following water content (volume %): 2%, 5%, and 20%. The samples were prepared by adding 250 μL of the water/acetone mixture to 15 mg of the salt sample. The samples were stirred at 25° C. or at 50° C. After 2 days, the samples were inspected for the presence of solid. If solid was not observed, additional salt material was added to the dissolved samples. Samples were stirred for an additional 3 days. After 5 days, samples were filtered and the solid obtained was analyzed by XRPD.

[12] = Karl Fischer coulometric titration (KF) water content
Protocol: Approximately 10-30 mg of solid material was accurately weighed into a vial. The solid was then manually introduced into the titration cell of a Mettler Toledo C30 Compact Titrator. The vial was back-weighed after the addition of the solid and the weight of the added solid entered on the instrument. Titration was initiated once the sample had fully dissolved in the cell. The water content was calculated automatically by the instrument as a percentage and the data printed.

O=C(c1ccc(Oc2ccccc2)cc1Cl)c1c[nH]c2ncnc(N[C@@H]3CC[C@@H](CO)OC3)c12 [amorphous Compound A, (2-chloro-4-phenoxyphenyl)(4-(((3R,6S)-6-(hydroxymethyl)tetrahydro-2H-pyran-3-yl)amino)-7H-pyrrolo[2,3-d]pyrimidin-5-yl)methanone]
hygroscopic nature by DVS [1]: hygroscopic
Post-DVS XRPD analysis (form) [1]: remain amorphous
moisture uptake by DVS [1]: 3.9%
XRPD post GVS ([2]; cell wraps: Remained | unchanged): Remained
GVS (hygroscopicity) ([2]; summary Table 11): 3.9% uptake
Acetone solubility: residual solid [3]: (Form 2 residual
Solubility [4]: < 10 mg/mL
Solubility [5]: ≥ 16 mg/mL

O=C(O)C(=O)O.O=C(c1ccc(Oc2ccccc2)cc1Cl)c1c[nH]c2ncnc(N[C@@H]3CC[C@@H](CO)OC3)c12 [oxalate Form 1]
form conversion under vacuum drying conditions [6]: converts to oxalate Form 5

O=C(c1ccc(Oc2ccccc2)cc1Cl)c1c[nH]c2ncnc(N[C@@H]3CC[C@@H](CO)OC3)c12.O=P(O)(O)O [phosphate Form 1]
Post-DVS XRPD analysis (form) [1]: no change in form from the input material
moisture uptake by DVS [1]: ca. 3.2%
XRPD analysis after storage for 1 week [7]: no change in form from the input material
stability under accelerated storage conditions (XRPD) [8]: stable
XRPD after salt disproportionation study, 48 hours [9]: no change from the input material
XRPD after thermodynamic solubility studies [10]: no change from the input material
solid obtained in hydration study (XRPD) ([11]; 2% and 5% water in acetone, 25° C.): recovered
solid obtained in hydration study (XRPD) ([11]; 2% water in acetone, 50° C.): potentially new form
Hydration study result (solid by XRPD) ([11]; 2% water in water/acetone, 25° C., Form = form of the same salt): Form 1
Hydration study result (solid by XRPD) ([11]; 2% water in water/acetone, 50° C., Form = form of the same salt): Form 1
Hydration study result (solid by XRPD) ([11]; 5% water in water/acetone, 25° C., Form = form of the same salt): Form 1
Hydration study result (solid by XRPD) ([11]; 5% water in water/acetone, 50° C., Form = form of the same salt): Form 6
Hydration study result (solid by XRPD) ([11]; 20% water in water/acetone, 25° C.): Gum
Hydration study result (solid by XRPD) ([11]; 20% water in water/acetone, 50° C.): Gum
solid obtained in hydration study ([11]; the other experiments (remaining water contents/temperatures)): gum
KF moisture (water) content [12]: 3.74%

Cl.O=C(c1ccc(Oc2ccccc2)cc1Cl)c1c[nH]c2ncnc(N[C@@H]3CC[C@@H](CO)OC3)c12 [hydrochloride Form 1]
form conversion under ambient conditions ([6]; ambient conditions): gradually converts to hydrochloride Form 2

O=C(c1ccc(Oc2ccccc2)cc1Cl)c1c[nH]c2ncnc(N[C@@H]3CC[C@@H](CO)OC3)c12.O=S(=O)(O)c1cccc2c(S(=O)(=O)O)cccc12 [1,5-naphthalene disulfonic acid Form 2]
form conversion under vacuum drying conditions [6]: converts 1,5-naphthalene disulfonic acid Form 4
